According to BindingDB's records for patent US20240109915 (Pfizer, 2024):

Target: Acetyl-CoA carboxylase 1 (Homo sapiens, UniProt Q13085)
Test: Inhibition of the Activity of ACC1
Procedure: The direct inhibition of ACC1 for the compounds of the present invention was determined using preparations of recombinant human ACC1 (rhACC1) (SEQ ID NO. 1). Preparation of rhACC1: Two liters of SF9 cells, infected with recombinant baculovirus containing full length human ACC1 cDNA, were suspended in ice-cold lysis buffer (25 mM Tris, pH 7.5; 150 mM NaCl; 10% glycerol; 5 mM imidazole (EMD Bioscience; Gibbstown, NJ); 2 mM TCEP (BioVectra; Charlottetown, Canada); Benzonase nuclease (10000 U/100 g cell paste; Novagen; Madison, WI); EDTA-free protease inhibitor cocktail (1 tab/50 ml; Roche Diagnostics; Mannheim, Germany). Cells were lysed by 3 cycles of freeze-thaw and centrifuged at 40,000×g for 40 minutes (4° C.). Supernatant was directly loaded onto a HisTrap FF crude column (GE Healthcare; Piscataway, NJ) and eluted with an imidazole gradient up to 0.5 M over 20 column volumes (CV). ACC1-containing fractions were pooled and diluted 1:5 with 25 mM Tris, pH 7.5, 2 mM TCEP, 10% glycerol and direct loaded onto a CaptoQ (GE Healthcare) column and eluted with an NaCl gradient up to 1 M over 20 CV's. Phosphate groups were removed from purified ACC1 by incubation with lambda phosphatase (100 U/10 μM target protein; New England Biolabs; Beverly, MA) for 14 hours at 4° C.; okadaic acid was added (1 μM final concentration; Roche Diagnostics) to inhibit the phosphatase. […]

| IC50 | SMILES |
| --- | --- |
| 22.9 nM | Cn1ncc2c(Cl)cc(C(=O)N3CCC4(CC3)CC(=O)c3nc(C(C)(C)C)sc3C4)cc21 [US20240109915, Example 73] |
| 92.6 nM | Cc1nn(C)c2c(Cl)cc(C(=O)N3CCC4(CC3)CC(=O)c3nc(C(C)(C)C)sc3C4)cc12 [US20240109915, Example 84] |
